In patent publication US12616806B2, “Nasal administration” (OptiNose Inc., priority 2013, dated 2026):

Columns and labels:
[1] = cited from earlier work
episodic migraine = settings: continuous carbon dioxide infusion; cited from earlier work
[2] = test system: chronic rhinosinusitis (CRS) with nasal polyps; test: Example #12: placebo controlled study in chronic rhinosinusitis with nasal polyps; assay type: in vivo, human; settings: after 12 weeks

SMILES	dips in mucosal pH ([1]; 5 L/min carbon dioxide in concentrations of 15% and 45%)	decrease of extracellular nasal mucosal pH ([1]; 5 L/min, 3 s duration, 20% carbon dioxide, basal ~7.4)	two-hour pain free response (episodic migraine)	change in summed polyp score [2]
O=C=O [carbon dioxide]	0.1-0.2 pH units	0.05-0.1 pH units	25.0%	–
C[C@@H]1C[C@H]2[C@@H]3C[C@H](F)C4=CC(=O)C=C[C@]4(C)[C@@]3(F)[C@@H](O)C[C@]2(C)[C@@]1(O)C(=O)SCF [fluticasone]	–	–	–	−0.98
